Measured values: patent publication US20030228632A1, “Stable RXR expressing cell line” (Allergan Sales, Inc., priority 2000, published 2003)

How the values were obtained:
Type in all cases: cell-based, Rat
[1] = test system: phosphorylated MAP-kinase in HircB cells; assay: Insulin stimulated phosphorylation of MAP kinase in HircB cells (Western blot, FIG. 9); conditions: 100 nM insulin, up to 90 minutes
Experimental: (§1) They were then incubated for various periods in the presence of 100 nM insulin and then lysed. Solubilized cell proteins were subjected to SDS-PAGE and transferred to nitrocellulose and immunoblotted using antibodies specific to phosphorylated forms of MEK and MAP kinase.
(§2) Similar results are shown in FIG. 9 with respect to the phosphorylation of MAP-kinase in response to insulin.

[2] = test system: phosphorylated MEK in HircB cells; assay: Insulin stimulated phosphorylation of MEK in HircB cells (Western blot, FIG. 8); conditions: 100 nM insulin, 0-30 minutes
Experimental: as §1
(§3) FIGS. 8 and 9 show the results. […] In the left panel, the parental HircB cell line was tested for phosphorylated MEK in the solubilized protein at 0 minutes (lane 1), 5 minutes (lane 2), 15 minutes (lane 3) and 30 minutes (lane 4) after treatment with 100 nM insulin.

[3] = test system: phosphorylated MAP-kinase in HircRXRα cells; assay: Insulin stimulated phosphorylation of MAP kinase in HircRXRα cells (Western blot, FIG. 9); conditions: 100 nM insulin, up to 90 minutes
Experimental: as §1, §2

[4] = test system: phosphorylated MEK in HircRXRα cells; assay: Insulin stimulated phosphorylation of MEK in HircRXRα cells (Western blot, FIG. 8); conditions: 100 nM insulin, 0-30 minutes
Experimental: as §1, §3

HircB cells = assay: Cell counts of parental HircB cells after agonist treatment (FIG. 5); conditions: 1 nM, four days of treatment
Experimental: (§4) The effect on cell growth was evaluated by plating either a HircB cells (as a control) or HircRXRα cells in 6 well plates with 0.5×10^5 cells per well in 10% FBS/DMEM/F12. The next day, the medium was replaced with a specified concentration of agonist, antagonist or both or with 0.1% DMSO in 10% FBS/DMEM/F12. Analyses were performed in triplicate.

HircRXRα cells [5] = assay: Cell growth of HircRXRα cells, direct microscopic observation; conditions: 1 nM
Experimental: as §4
[…] Alternatively, cell growth was measured using the MTT assay using absorbance at 590 nm. Mosmann, T., et al., J Immunol. Meth. (1983) 65:55-62.

HircRXRα cells [6] = assay: Cell counts of HircRXRα cells after agonist treatment (FIG. 5); conditions: 1 nM, four days of treatment
Experimental: as §4

HircRXRα cells [7] = assay: HircRXRα cell growth by MTT assay (FIGS. 6 and 7); conditions: five days of treatment, FIG. 6
Experimental: as §4
After incubation with agonist for 2 days, the change in cell number and morphology in the various HircRXRα cell samples were observed under the microscope. Alternatively, cell growth was measured using the MTT assay using absorbance at 590 nm. Mosmann, T., et al., J Immunol. Meth. (1983) 65:55-62.
FIGS. 6 and 7 show effects of RXRα ligands on HircRXRα cell growth as determined when cell growth was assessed by the MTT assay.

| Compound | phosphorylated MAP-kinase after insulin treatment [1] | phosphorylated MEK after insulin treatment [2] | phosphorylated MAP-kinase after insulin treatment [3] | phosphorylated MEK after insulin treatment [4] | effect on growth (cell counts) (HircB cells) | effect on cell growth (microscopic observation) (HircRXRα cells [5]; after four days) | effect on cell growth (microscopic observation) (HircRXRα cells [5]; after two days) | growth (cell counts) relative to no agonist (HircRXRα cells [6]) | effect on cell growth (MTT assay) (HircRXRα cells [7]; 1 nM) | effect on cell growth (MTT assay) (HircRXRα cells [7]; 100 nM) |
| --- | --- | --- | --- | --- | --- | --- | --- | --- | --- | --- |
| insulin: insulin used at 100 nM to stimulate MEK and MAP kinase phosphorylation | virtually gone after 90 minutes | diminished considerably by 30 minutes | substantially maintained over the 90-minute period | less reduced after 30 minutes than in the HircB cell line |  |  |  |  |  |  |
| CC(/C=C/[C@@H]1C[C@]1(C)c1ccc2c(c1)C(C)(C)CCC2(C)C)=C\C(=O)O [AGN 4204] |  |  |  |  | no demonstrable effect | the reduction in growth was maintained | greatly reduced growth | approximately one-third | significant reduction in growth | further reduction in growth |
